Results: patent US20020159981A1, “Methods of controlling proliferation and differentiation of stem and progenitor cells” (Gamida-Cell Ltd., priority 1999, published 2002)
Blank lines part the entries; values can stand above or below the molecule they belong to.

Legend:
[1] = test system: Cord blood-derived CD34 cells; test: Long-term liquid culture of CD34 cells: proliferation, CFUc, differentiation status; format: cell-based, human; conditions: for cell proliferation and generation of CFUc in long-term cultures: long-term cultures (FIGS. 21, 22)
Protocol: (§1) Culture procedures: For the expansion of progenitor cells, CD34^+ enriched fractions or unseparated mononuclear cells were seeded at about 1-3×10^4 cells/ml in either alpha minimal essential medium containing 10% preselected fetal calf serum (FCS) (both from GIBCO, Grand Island, N.Y.), or serum-free medium (Progenitor-34 medium, Life Technologies, Grand Island, N.Y.). The media were supplemented with a mixture of growth factors and transition metal chelators. The cultures were incubated at 37° C. in an atmosphere of 5% CO2 in air with extra humidity. Half of the medium was changed weekly with fresh medium containing all the supplements.
(§2) Cloning potential evaluations: The cloning potential of cells developed in the liquid culture was assayed, at different intervals, in semi-solid medium. The cells were washed and seeded in 35 mm dishes in methylcellulose containing alpha medium supplemented with recombinant growth factors (SCF, G-CSF, GM-CSF and EPO). Following 2 weeks incubation, the cultures were scored with an inverted microscope. Colonies were classified as blast, mixed, erythroid, myeloid, and megakaryocytic, according to their cellular composition.
Morphological assessment: In order to characterize the resulting culture populations, aliquots of cells were deposited on a glass slide (cytocentrifuge, Shandon, Runcorn, UK), fixed and stained in May-Grunwald Giemsa. Other aliquots were stained by benzidine for intracellular hemoglobin.
TEPA effects on proliferation and clonability of long-term CD34^+ cultures: Long-term cultures were maintained for 3-5 weeks by weekly demi-depopulation (one half of the culture volume was removed and replaced by fresh medium and cytokines).
CD34^+ cells derived from human neonatal cord blood were purified by immunomagnetic method and then cultured in liquid medium supplemented with cytokines either with or without transition metal chelators. At weekly intervals, the cultures were demi-depopulated by removing half of the culture content (supernatant and cells) and replacing it with fresh medium, cytokines and the chelators. At the indicated weeks the cellular content of the cultures were quantified for total cells (by a manual microscopic/hemocytometric method), for CD34^+ cells (by immuno-flow cytometry) and for clonogenic cells (by cloning the cells in cytokine-supplemented semi-solid medium). The cultures were initiated with 1×10^4 cells, 50-80% of which were CD34^+ and 25-50% of which were CFUc. The results presented in FIGS. 11 to 24 were calculated per 1×10^4 initiating cells (the numbers were multiplied by the dilution factors).

[2] = test system: Cord blood-derived CD34 cells; test: Short-term liquid culture of CD34 cells: cell number, CD34 cells, colony forming cells; format: cell-based, human; conditions: for effects of transition metal chelators on CD34^+ cells: 10 μM, day 7 (FIG. 7); for reversal of TEPA activities by supplemented ions: TEPA-treated cultures, short to medium term (FIGS. 8, 9)
Protocol: The interphase layer of mononuclear cells were collected, washed three times with Ca/Mg free phosphate buffered saline containing 1% bovine serum albumin (BSA). The cells were incubated for 30 min. at 4° C. with murine monoclonal anti CD34 antibody (0.5 μg/10^6 mononuclear cells) and thereafter isolated using the miniMACS apparatus (Miltenyi-Biotec, Bergisch, Gladbach, Germany) according to the manufacturer's protocol.
as §1, §2
Immunofluorescence staining: At different intervals, cells from the liquid cultures were assayed for CD34 antigen. Aliquots were harvested, washed and incubated on ice with FITC-labeled anti CD45 monoclonal antibody and either PE-labeled anti CD34 (HPCA-2) monoclonal antibody or PE-labeled control mouse Ig. After incubation, red cells were lysed with lysing solution, while the remaining cells were washed and analyzed by flow cytometer.
Flow cytometry: Cells were analyzed and sorted using FACStarPlus flow cytometer (Becton-Dickinson, Immunofluorometry systems, Mountain View, Calif.). Cells were passed at a rate of 1,000 cells/second through a […] nozzle, using saline as the sheath fluid. A 488 nm argon laser beam at 250 mW served as the light source for excitation. […] The PMTs was set at the appropriate voltage. Logarithmic amplification was applied for measurements of fluorescence and linear amplification—for forward light scatter. At least 10^4 cells were analyzed.
Cord blood-derived CD34 cells were plated in liquid culture in the presence of: FL—50 ng/ml, SCF—50 ng/ml, IL-6—50 ng/ml, with or without IL-3—20 ng/ml, with or without TEPA—10 μM. On day 7, the percentage of CD34 cells and the total cell number were determined. Aliquots equivalent to 1×10^3 initiating cells were assayed on days 0 and 7 for colony forming cells (CFU) by cloning in semi-solid medium. CFU expansion represents the ratio of CFU present on day 7 to CFU present on day 0.

[3] = test system: cord blood-derived CD34^+ cells; test: Copper-chelating peptides on proliferation and clonability in CD34 cell cultures; format: cell-based; conditions: for decrease of cell number / decrease of clonogenic potential (CFUc): peptides 10 μM, cytokines 10 ng/ml each; for decrease of cell number: after 7 weeks (FIG. 25a); for decrease of clonogenic potential (CFUc): after 7 weeks (FIG. 25b); for effect on cell differentiation: second group of Copper chelators
Protocol: Culture procedures: For the expansion of progenitor cells, CD34^+ enriched fractions were seeded at 1×10^4 cells/ml in alpha minimal essential medium containing 10% preselected fetal calf serum (FCS) (both from GIBCO, Grand Island, N.Y.). The medium was supplemented with a mixture of growth factors and Copper chelators. The cultures were incubated at 37° C. in an atmosphere of 5% CO2 in air with extra humidity. Half of the medium was changed weekly with fresh medium containing all the supplements.
The cloning potential of the cultured cells was assayed in semi-solid medium. The cells were washed and seeded in 35 mm dishes in methylcellulose containing alpha medium supplemented with 30% FCS and further with recombinant growth factors (stem cell factor (SCF), G-CSF, GM-CSF and erythropoietin (EPO)). Following two week incubation, the cultures were scored with an inverted microscope. Colonies were classified as blast, mixed, erythroid, myeloid, and megakaryocytic, according to their cellular composition.
The effect of Copper-chelating peptides on proliferation and clonability in CD34 cell cultures: Cultures were initiated with 10^4 cord blood-derived CD34^+ cells by plating purified cells in liquid medium in the presence of SCF, FLT3 and IL-6 (50 ng/ml each) and the Copper-binding peptides, Gly-Gly-His (GGH) or Gly-His-Lys (GHL) (10 μM each), or the late-acting cytokines G-CSF and GM-CSF (10 ng/ml each). At weekly intervals, the cultures were demi-depopulated and supplemented with fresh medium, cytokines and the peptides. After 7 weeks, cells were counted and assayed for CFUc.

[4] = test system: Murine erythroleukemia cells (MEL); test: HMBA-induced differentiation and growth of erythroleukemic cells; format: cell-based, mouse; conditions: day 3 (Table 2)
Protocol: Mouse erythroleukemic cells (MEL): MEL cells are erythroblast like cells. Following treatment with several chemicals (differentiation inducers) the cells undergo erythroid differentiation and accumulate hemoglobin. […] At day 3 of the culture, the total number of cells and the percentage of hemoglobin-containing cells were determined (Table 2).
On day 3, total cell number and hemoglobin containing (benzidine positive) cells were determined.

HL-60 cells = test: Copper determination in chelator treated cells (atomic absorption); format: cell-based, human
Protocol: Copper Determination: Cells were harvested by centrifugation at 1000×g for 5 minutes. The cell pellet was washed three times by re-suspending the cells in PBS (Ca^++ and Mg^++ free) and centrifugation at 1000×g. An aliquot containing 2×10^6 cells was then transferred into a metal-free Eppendorf tube and the cells were recovered by centrifugation at 1000×g. The cell pellet was re-suspended in 0.03 M ultra-pure nitric acid to give a concentration of 1×10^7 cells/ml. The cells were homogenized with a high shear mixer (polytron, Kinematica, Switzerland) for 1 minutes to disrupt the cell and release intracellular copper content. Cell samples were vortexed before transferring to a vial autosampler and analyzed in duplicate by a Perkin Elmer graphite furnace atomic absorption spectrophotometer at a wavelength of 324.7 nm. The samples were analyzed against copper standard solution prepared from a commercial stock solution that was diluted with 0.03 M ultra pure nitric acid.

[5] = polyamine chelating agents, weeks 3, 4, 6, 7 (FIGS. 21a-b)

Molecule: C1CNCCNCCNCCN1 [1,4,7,10-Tetraaza cyclododecane]
activity on differentiation of CD34^+ cells [1]: stimulate differentiation

Molecule: CC(C)(S)[C@@H](N)C(=O)O [Penicilamine, penicilamine, reference compound]
effects of transition metal chelators on CD34^+ cells [2]: share the same effects on CD34^+ cells as TEPA
cell proliferation and generation of CFUc in long-term cultures [1]: sustained cell proliferation and expansion of clonogenic cells
concentrations with optimal activity ([1]; transition metal chelating agents, weeks 4, 5, 7 (FIGS. 22a-b)): 5 µM

Molecule: O=S(=O)([O-])[O-].[Cu+2] [Copper, Copper-sulfate]
reversal of TEPA activities by supplemented ions [2]: reversed

Molecule: Gly-Gly-His (GHK) [GGH]
activity on differentiation of CD34^+ cells [1]: stimulate differentiation
decrease of cell number [3]: 10%
decrease of clonogenic potential (CFUc) [3]: 80%
effect on cell differentiation [3]: accelerate cell differentiation

Molecule: C[C@H](CS)C(=O)N1CCC[C@H]1C(=O)O [Captopril, captopril, reference compound]
effects of transition metal chelators on CD34^+ cells [2]: share the same effects on CD34^+ cells as TEPA
HMBA-induced differentiation of MEL cells [4]: inhibited

Molecule: NCCNCCNCCN [Triethylene tetramine, triethylene-tetramine]
cell proliferation and generation of CFUc in long-term cultures [1]: support continuous cell proliferation and long-term generation of CFUc and to delay cell differentiation
concentrations with optimal activity [1, 5]: 20 µM

Molecule: NCCN [EDA, ethylenediamine]
cell proliferation and generation of CFUc in long-term cultures [1]: support continuous cell proliferation and long-term generation of CFUc and to delay cell differentiation
concentrations with optimal activity [1, 5]: 20 µM

Molecule: O=S(=O)([O-])[O-].[Zn+2] [Zinc, Zinc-sulfate]
clonability of the cultures ([2]; Zinc alone (FIG. 10)): expand the clonability
effect of Zinc in long term cultures ([1]; FIGS. 23a-b, to a smaller extent than the chelators): mimicked the effect of the chelating agents

Molecule: C1CNCCNCCN1.Cl.Cl.Cl [1,4,7-Triazacyclononane trihydrochioride]
Average Intracellular Cu (% of control) (HL-60 cells; 20 μM): 32%
Average Intracellular Cu (% of control) (HL-60 cells; 100 μM): 36%

Molecule: O=[Se]([O-])[O-].[Na+].[Na+] [selenium, sodium selenite]
reversal of TEPA activities by supplemented ions [2]: did not

Molecule: iron
reversal of TEPA activities by supplemented ions [2]: did not

Average Intracellular ppb Cu (HL-60 cells; 100 μM, control 49 + − 18): 274 ppb
Molecule: O=C1CC(=O)NCCNCCCNCCN1 [1,4,8,11-Tetraaza cyclotetradecane-5,7-dione]

Molecule: Gly-His-Lys (GGH) [GHL]
activity on differentiation of CD34^+ cells [1]: stimulate differentiation
decrease of cell number [3]: 25%
decrease of clonogenic potential (CFUc) [3]: 78%
effect on cell differentiation [3]: accelerate cell differentiation
